Laboratory results as given in publication PMC5041077, “Metabolic profile and safety of piperlongumine” (Scientific Reports, 2016).

Legend:
[1] = target: CYP3A4 (Homo sapiens, UniProt P08684); assay: biochemical
[2] = Piperlongumine microsomal protein binding (ultrafiltration); assay type: in vitro ADME; settings: human, pooled human liver microsomes; PPL 127.70 μM; read-out: fumic (free fraction of the compound in the microsomal incubation)
Protocol: Piperlongumine-protein binding. An in vitro study with a microsomal and plasma protein was carried out using a concentration of PPL approximately corresponding to its S50 (n = 3). The plasma protein binding was evaluated to predict the in vivo clearance, using a plasma protein concentration of 42 mg/mL. The samples were incubated with pooled human liver microsomes at 37 °C as described in section above. The same V0 conditions obtained (protein concentration and incubation time) were applied in this study, but in the absence of the cofactor NADPH. Furthermore, a control sample without protein was analyzed simultaneously for comparison purposes. These mixtures were added to the centrifugal filter device (Microcon YM-30, 30,000 molecular weight cut-off; Millipore Corporation, Bedford, MA, USA) and centrifuged at 21800 x g for 30 min at 37 °C (Hitachi CF16RXII, Himac, Tokyo, Japan). The ultra-filtrate was directly assayed by high-performance liquid chromatography at the conditions previously described.

[3] = Piperlongumine stability assay (microsomal medium); assay type: physicochemical
Protocol: Method validation protocol and results. The quantification method of PPL was validated by following the European Medicines Agency (EMA) guidelines. Analytical curves were obtained by spiking 200 µL aliquots of HLM with PPL 0.38; 0.95; 9.45; 141.80; 236.34 and 283.61 µM. The linearity was carried out and assessed in triplicate. The linearity was determined using the correlation coefficient (r), the F test for lack-of-fit and a p value of 0.05. The MINITAB Release version 14.1 software (State College, PA, USA) was used to conduct the statistical analysis (Table S1). Carbamazepine (2120 µM) was used as internal standard, and the ratio of the peak area of the PPL and carbamazepine was defined as the analytical response. The lower limit of quantification (LLQ) was obtained by spiking the incubation mixture samples at a concentration of 0.38 µM. The selectivity of the method was assured by analyzing the standard solutions of reagents and the blank HLM (Fig. S1). The absolute recovery (%) was performed at three different concentrations: 0.95, 141.8, 212.7 µM. The recovery was expressed as the percentage of the extracted amount, by comparing the areas from the samples subjected to the extraction procedure with the areas from the analysis of standard solutions of the same concentration that were not submitted to the extraction process. To assess the within-day precision and accuracy, replicate analyzes (n = 5) of 200 µL of microsomal medium spiked at concentrations 0.38, 0.95; 141.8 and 236.3 µM was analyzed in a single day. For between-day assays, samples at the same concentration described above were analyzed for three consecutive days (n = 5) (Table S2). These samples were quantified using a new calibration curve prepared daily. The stability assays were performed to evaluate the PPL stability at three different conditions: (i) at room temperature (25 °C ± 2 °C, for 4 h), (ii) at incubation conditions (37 °C, for 60 min) and (iv) in the autosampler equipment (25 °C ± 2 °C, for 24 h). These assays aimed to evaluate the stability of PPL during sample preparation, during the metabolism reaction and during the analysis, respectively. […] The peak area obtained from the stability assays was quantified using a fresh analytical curve prepared daily. The samples were considered stable when the relative error (RE, %) from the nominal concentration was within ±15% and when the relative standard deviation (RSD%) was below 15% (Table S3).

[4] = target: CYP1A2 (Homo sapiens, UniProt P05177); assay: Inhibition of CYP1A2 by piperlongumine (dose-dependent, Ki); assay type: in vitro ADME
Protocol: In the assay of PPL inhibition in reversible manner, human liver microsomes (0.3 mg/mL final concentration) were the last reagent added into the incubation system to initiate the reaction; after 30 min the reaction was terminated by adding 2 mL of ethyl acetate. Caffeine (64 μM) was added as internal standard and samples were shaken for 10 min at 1500 rpm and centrifuged for 5 min at 2860x g. The organic layers (1.8 mL) were evaporated to dryness under a stream of compressed air at room temperature. The residues were dissolved in 80 μL of the mobile phase and injected in HPLC.
The kinetic parameters were calculated from nonlinear regression using GraphPad Prism Version 3.03 (San Diego, CA, USA). The Intrinsic Clearance (CLint) was obtained considering the Hill coefficient. The Unbounded Intrinsic Clearance (CLuint), Predicted in vivo Clearance (CL) and Hepatic Clearance (CLH) were determined according to Subramarian and Tracy[15] and Austin et al.[17]. Hepatic extraction ratio was calculated according to Kashuba et al.[21]. Dose-dependent inhibition parameters were determined employing SigmaPlot version 12.0 (Chicago, IL, USA). The Lineweaver-Burk plot was used to determine the inhibition profile. […] The parameters kinact and KI in time-dependent inhibition were calculated employing GraphPad Prism Version 3.03.

[5] = target: CYP2D6 (Homo sapiens, UniProt P10635); assay: biochemical
Sequence of CYP2D6 (P10635 whole entry): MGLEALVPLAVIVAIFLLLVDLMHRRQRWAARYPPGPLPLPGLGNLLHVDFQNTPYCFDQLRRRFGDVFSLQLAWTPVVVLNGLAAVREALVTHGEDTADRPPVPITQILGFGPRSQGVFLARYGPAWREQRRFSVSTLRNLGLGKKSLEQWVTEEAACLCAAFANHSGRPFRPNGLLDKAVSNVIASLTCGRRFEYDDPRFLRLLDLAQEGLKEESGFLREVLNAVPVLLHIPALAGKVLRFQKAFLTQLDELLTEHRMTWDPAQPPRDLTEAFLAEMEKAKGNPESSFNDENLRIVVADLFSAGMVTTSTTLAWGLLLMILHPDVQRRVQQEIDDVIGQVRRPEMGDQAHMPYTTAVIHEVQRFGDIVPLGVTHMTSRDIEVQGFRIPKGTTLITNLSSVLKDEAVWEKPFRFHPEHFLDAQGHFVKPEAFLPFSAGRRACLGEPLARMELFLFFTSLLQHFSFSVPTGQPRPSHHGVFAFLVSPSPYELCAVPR

Sequence of CYP1A2 (P05177 whole entry): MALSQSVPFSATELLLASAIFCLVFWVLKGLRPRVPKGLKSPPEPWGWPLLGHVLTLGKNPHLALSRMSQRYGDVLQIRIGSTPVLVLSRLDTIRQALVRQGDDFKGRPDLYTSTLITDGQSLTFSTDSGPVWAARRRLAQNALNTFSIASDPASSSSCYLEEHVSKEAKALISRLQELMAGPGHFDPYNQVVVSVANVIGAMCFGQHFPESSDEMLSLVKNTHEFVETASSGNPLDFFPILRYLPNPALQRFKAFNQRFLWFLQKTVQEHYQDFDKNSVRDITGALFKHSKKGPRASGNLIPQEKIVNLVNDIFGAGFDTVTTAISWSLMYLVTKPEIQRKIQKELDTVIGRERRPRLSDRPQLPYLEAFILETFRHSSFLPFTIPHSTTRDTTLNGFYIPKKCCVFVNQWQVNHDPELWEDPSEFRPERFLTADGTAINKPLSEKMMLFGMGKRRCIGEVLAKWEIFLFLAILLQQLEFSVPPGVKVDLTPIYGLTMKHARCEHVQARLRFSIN
Sequence of CYP3A4 (P08684 whole entry): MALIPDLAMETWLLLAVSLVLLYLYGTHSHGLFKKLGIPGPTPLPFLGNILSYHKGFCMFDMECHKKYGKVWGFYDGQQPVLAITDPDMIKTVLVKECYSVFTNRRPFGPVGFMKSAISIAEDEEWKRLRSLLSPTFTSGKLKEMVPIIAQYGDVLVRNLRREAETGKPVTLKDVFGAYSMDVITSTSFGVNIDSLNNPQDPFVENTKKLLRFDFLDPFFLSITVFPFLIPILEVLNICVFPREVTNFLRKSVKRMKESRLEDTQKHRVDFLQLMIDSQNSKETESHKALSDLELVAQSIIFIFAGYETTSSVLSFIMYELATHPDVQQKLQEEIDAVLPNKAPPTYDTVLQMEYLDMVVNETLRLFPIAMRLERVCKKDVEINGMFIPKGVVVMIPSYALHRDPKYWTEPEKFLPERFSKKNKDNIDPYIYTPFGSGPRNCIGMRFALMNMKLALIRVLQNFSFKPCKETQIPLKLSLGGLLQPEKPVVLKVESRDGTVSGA

SMILES: COc1cc(/C=C/C(=O)N2CCC=CC2=O)cc(OC)c1OC [PPL, Piperlongumine]
- IC50 [1]: > 100 µM
- fraction unbound at 127.7 μM [2]: 0.76
- stability, RE (%) from nominal concentration ([3]; 37°C (1h), PPL 0.95 µM): 0.6%
- stability, RE (%) from nominal concentration ([3]; 37°C (1h), PPL 212.7 µM): 0.0%
- stability, RE (%) from nominal concentration ([3]; Auto injector (24 hs), PPL 0.95 µM): -4.0%
- stability, RE (%) from nominal concentration ([3]; Auto injector (24 hs), PPL 212.7 µM): 0.0%
- stability, RE (%) from nominal concentration ([3]; Room temperature (4 hs), PPL 0.95 µM): 0.6%
- stability, RE (%) from nominal concentration ([3]; Room temperature (4 hs), PPL 212.7 µM): 6.0%
- Ki [4]: 1.5 µM
- mode of inhibition ([4]; Lineweaver-Burk plot): competitive type
- IC50 [5]: > 100 µM
